Results published in ChEMBL document CHEMBL1201862, “PubChem BioAssay data set” (2004).
Calls of active or inactive are those of the source.

Key:
[1] = NIH-3T3 fibroblast cytotoxicity, dose response, cytotoxicity control, cell-based, fluorescence, Alamar Blue, secondary assay (AID 2327); assay type: functional;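 further: NIH-3T3 mouse fibroblasts cultured with fluconazole at 8 µg/mL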
[2] = test system: Streptococcus sp. 'group A'; experiment: Streptococcus pyogenes SK(-)GAS viability under kanamycin – luminescence, BacTiterGlo, confirmation, counter-screen for streptokinase expression inhibitor project, dose response (AID 1900); assay type: functional, organism-based
cells [3] = assay type: functional, cell-based
[4] = Luminescence Cell-Based Dose Response HTS to Identify Inhibitors of 5'UTR Stem-Loop Driven Prion Protein mRNA Translation in H4 Neuroglioblastoma Cells. [Related pubchem assays: 1827 (Project Summary), 1813 (Primary HTS)]; assay type: functional
[5] = alpha-synuclein stem-loop luciferase translation blockers – H4 neuroglioma cells, luminescence, confirmation (AID 1988); assay type: functional, cell-based
[6] = fluconazole-exposed Candida albicans growth modulators – fluorescence, retest, confirmation (AID 2467); assay type: functional, cell-based
cells [7] = assay type: functional, cell-based; remark: listed apart in the source
Streptococcus = experiment: GAS UMAA2166 growth inhibition – luminescence, BacTiterGlo, counter-screen for streptokinase expression inhibitor project, dose response (AID 1915); assay type: functional, organism-based;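 further: potency for reduction of bacterial viability or growth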
HEK293 = experiment: EBV LMP1 TES2 canonical NF-kB signalling blockers – cell-based, HEK293, luciferase, cherry-pick, dose response (AID 588343); assay type: functional; settings: Homo sapiens
[8] = target: T1, Polyadenylate-binding protein 1 (Homo sapiens, UniProt P11940); experiment: MLLE binding blockers, Cy5 peptide tracer – biochemical, fluorescence polarization, Cy5-PAM2 peptide, secondary, miRNA deadenylation inhibitor project, dose response (AID 602260); assay type: functional; settings: read-out: IC50_Mean
T1 sequence (P11940 whole entry, the tested form may be a part): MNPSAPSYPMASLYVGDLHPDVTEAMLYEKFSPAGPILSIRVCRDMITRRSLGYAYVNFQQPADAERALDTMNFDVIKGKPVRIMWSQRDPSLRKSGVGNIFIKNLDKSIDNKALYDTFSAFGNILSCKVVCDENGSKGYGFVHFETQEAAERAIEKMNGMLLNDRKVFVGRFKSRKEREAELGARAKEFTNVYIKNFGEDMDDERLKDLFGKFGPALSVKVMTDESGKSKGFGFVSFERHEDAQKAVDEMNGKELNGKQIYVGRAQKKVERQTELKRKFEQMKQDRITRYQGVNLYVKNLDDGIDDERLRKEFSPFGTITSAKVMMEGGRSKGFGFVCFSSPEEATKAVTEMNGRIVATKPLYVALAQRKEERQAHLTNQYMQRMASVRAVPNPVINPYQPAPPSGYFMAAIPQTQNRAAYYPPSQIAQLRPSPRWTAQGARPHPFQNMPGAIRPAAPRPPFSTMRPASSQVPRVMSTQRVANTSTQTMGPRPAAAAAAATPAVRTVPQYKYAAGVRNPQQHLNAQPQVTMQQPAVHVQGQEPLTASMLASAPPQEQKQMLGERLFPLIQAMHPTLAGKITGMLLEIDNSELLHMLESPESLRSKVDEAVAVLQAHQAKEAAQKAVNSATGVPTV

[9] = target: T1, Polyadenylate-binding protein 1; experiment: MLLE domain peptide-binding blockers, IC50 – biochemical, fluorescence polarization, FITC-PAM2 peptide, dose response (AID 602259); assay type: functional; settings: read-out: IC50_Mean
[10] = target: T2, Short transient receptor potential channel 4 (Mus musculus, UniProt Q9QUQ5); experiment: calcium entry via TRPC4 opening agents – cell-based, HEK293 TRPC4/mu-opioid, Fluo-4 calcium, dose response (AID 434937); assay type: functional
T2 sequence (Q9QUQ5 whole entry): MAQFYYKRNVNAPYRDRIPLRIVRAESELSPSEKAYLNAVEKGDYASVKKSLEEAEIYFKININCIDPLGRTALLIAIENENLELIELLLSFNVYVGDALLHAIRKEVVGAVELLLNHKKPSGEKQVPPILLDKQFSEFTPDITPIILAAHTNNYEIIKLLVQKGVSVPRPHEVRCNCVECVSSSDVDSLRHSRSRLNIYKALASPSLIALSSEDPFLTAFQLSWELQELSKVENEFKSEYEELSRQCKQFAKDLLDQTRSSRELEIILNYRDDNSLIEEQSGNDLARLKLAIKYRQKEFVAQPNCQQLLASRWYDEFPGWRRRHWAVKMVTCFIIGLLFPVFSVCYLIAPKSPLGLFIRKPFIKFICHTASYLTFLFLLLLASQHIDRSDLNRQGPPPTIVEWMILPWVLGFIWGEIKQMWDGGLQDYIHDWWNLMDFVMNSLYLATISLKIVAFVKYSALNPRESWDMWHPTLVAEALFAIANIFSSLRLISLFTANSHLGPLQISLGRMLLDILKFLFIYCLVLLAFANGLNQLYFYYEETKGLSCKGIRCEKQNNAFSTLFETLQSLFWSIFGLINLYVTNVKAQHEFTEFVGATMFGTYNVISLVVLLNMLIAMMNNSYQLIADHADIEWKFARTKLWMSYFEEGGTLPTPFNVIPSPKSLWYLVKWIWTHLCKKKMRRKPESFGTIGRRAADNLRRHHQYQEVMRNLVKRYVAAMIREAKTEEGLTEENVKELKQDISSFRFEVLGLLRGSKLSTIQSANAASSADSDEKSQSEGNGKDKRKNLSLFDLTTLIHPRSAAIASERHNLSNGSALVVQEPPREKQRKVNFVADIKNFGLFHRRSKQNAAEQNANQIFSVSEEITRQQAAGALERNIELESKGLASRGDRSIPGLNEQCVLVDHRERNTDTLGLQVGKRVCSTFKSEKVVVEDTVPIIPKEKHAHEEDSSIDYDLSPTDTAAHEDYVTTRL

[11] = luciferase reporter signal suppression in cells – H4 neuroglioma cells, luminescence, dose response (AID 1990); assay type: functional, cell-based
[12] = target: T3, Heat shock factor protein 1 (Mus musculus, UniProt P38532); experiment: decrease of HSF1-responsive luciferase luminescence – cell-based, NIH3T3, dose retest, confirmation (AID 2382); assay type: functional;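 further: NIH3T3 fibroblasts with HSF1-driven luciferase reporter stressed by proteasome inhibitor MG132; luminescence from HSF1-driven luciferase expression after 8 hours of MG132 stress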
T3 sequence (P38532 whole entry): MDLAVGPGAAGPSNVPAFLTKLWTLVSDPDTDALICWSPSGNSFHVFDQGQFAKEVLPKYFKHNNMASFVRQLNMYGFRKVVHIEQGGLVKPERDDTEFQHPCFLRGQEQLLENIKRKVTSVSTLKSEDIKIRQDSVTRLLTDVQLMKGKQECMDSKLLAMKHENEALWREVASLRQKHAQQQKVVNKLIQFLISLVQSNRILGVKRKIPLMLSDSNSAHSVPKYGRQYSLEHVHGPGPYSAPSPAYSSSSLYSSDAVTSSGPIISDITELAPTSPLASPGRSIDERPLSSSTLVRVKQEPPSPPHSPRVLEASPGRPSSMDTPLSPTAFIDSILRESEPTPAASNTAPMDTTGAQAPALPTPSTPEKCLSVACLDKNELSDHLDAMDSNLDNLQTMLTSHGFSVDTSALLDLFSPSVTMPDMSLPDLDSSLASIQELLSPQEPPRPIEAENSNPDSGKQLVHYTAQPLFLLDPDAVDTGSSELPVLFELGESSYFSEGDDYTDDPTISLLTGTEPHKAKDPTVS

[13] = Trypanosoma cruzi growth suppression in host cells – NIH3T3 host cells, beta-gal luminescence, confirmation (AID 2044); assay type: functional, cell-based;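 further: intracellular parasites grown in NIH/3T3 mouse fibroblasts as host cells; luminescent beta-galactosidase reporter signal from transgenic T. cruzi replicating inside host cells; inhibitors lower the luminescence signal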
[14] = viability of PTEN-deleted HCT116 cells – cell-based, HCT116 PTEN knockout, dose response (AID 1047); assay type: functional;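 further: HCT116 colon tumor cells with PTEN knocked out; cells exposed to compound for 60 hours before readout; potency for loss of cell viability measured by luminescence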
[15] = NIH3T3 cell viability loss – ATP luminescence, mouse fibroblasts, counter-screen, dose response (AID 2010); assay type: functional, cell-based;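 further: cells exposed to compound for about 90 hours before reading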
[16] = viability of HCT116 lacking mutant beta-catenin – cell-based, human colon tumor, dose response (AID 1045); assay type: functional;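 further: HCT116 colon tumor cells with beta catenin knocked out; cells exposed to compound for 60 hours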
[17] = HEK-293T viability loss after treatment – luminescence, T-cell screen hits, cytotoxicity control for TCR NF-kB inhibitor project, dose response (AID 489026); assay type: functional, cell-based;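 further: cells exposed to compound about 14 hours before the viability readout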
Genome polyprotein = Genome polyprotein (dengue virus type 2, UniProt P29990); experiment: flavivirus cap methylation enzyme inhibition – biochemical, confirmation dose response, primary screen (AID 588689); assay type: functional
Genome polyprotein, sequence (P29990 2492-3391 limits assumed): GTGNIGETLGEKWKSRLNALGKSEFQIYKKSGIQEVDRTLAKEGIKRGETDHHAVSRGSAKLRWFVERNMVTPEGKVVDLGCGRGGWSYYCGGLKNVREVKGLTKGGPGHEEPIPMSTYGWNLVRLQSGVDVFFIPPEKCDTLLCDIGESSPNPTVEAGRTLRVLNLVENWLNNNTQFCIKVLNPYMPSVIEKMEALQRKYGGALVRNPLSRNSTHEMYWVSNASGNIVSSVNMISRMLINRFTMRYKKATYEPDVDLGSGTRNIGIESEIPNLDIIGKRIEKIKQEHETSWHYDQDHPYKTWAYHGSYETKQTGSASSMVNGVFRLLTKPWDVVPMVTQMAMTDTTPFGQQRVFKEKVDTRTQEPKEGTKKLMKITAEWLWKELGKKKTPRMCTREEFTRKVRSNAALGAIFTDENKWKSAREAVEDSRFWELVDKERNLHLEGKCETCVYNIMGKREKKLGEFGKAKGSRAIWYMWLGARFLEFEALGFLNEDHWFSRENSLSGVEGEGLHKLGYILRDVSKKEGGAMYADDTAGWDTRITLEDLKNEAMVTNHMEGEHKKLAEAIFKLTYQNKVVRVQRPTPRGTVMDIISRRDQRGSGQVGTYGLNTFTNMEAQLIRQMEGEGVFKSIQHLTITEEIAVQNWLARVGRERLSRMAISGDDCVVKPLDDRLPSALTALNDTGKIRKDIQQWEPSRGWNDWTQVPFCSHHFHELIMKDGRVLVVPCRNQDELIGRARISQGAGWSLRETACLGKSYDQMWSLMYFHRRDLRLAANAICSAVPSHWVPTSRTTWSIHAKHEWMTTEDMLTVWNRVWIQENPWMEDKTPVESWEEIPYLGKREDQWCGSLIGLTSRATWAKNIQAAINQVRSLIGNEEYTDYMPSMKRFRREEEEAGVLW

[18] = target: T4, Corticotropin-releasing factor receptor 2/Corticotropin-releasing factor-binding protein (Homo sapiens, UniProt P24387+Q13324); experiment: Dose Response confirmation of uHTS hits for small molecule antagonists of the CRF-binding protein and CRF-R2 receptor complex.; assay type: functional; settings: read-out: IC50_Mean
T4 sequence (Q13324 whole entry): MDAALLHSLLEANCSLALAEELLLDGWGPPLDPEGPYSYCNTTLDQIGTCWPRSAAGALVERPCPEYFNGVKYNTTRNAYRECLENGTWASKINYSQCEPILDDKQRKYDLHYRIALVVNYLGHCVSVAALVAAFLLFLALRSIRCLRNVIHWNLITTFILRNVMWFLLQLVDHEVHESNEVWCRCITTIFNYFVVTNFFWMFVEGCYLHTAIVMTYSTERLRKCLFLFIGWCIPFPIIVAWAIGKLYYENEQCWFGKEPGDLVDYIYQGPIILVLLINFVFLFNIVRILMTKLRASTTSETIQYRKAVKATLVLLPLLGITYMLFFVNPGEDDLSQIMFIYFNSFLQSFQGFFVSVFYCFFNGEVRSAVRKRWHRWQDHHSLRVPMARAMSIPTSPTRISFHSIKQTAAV
T4 sequence (P24387 whole entry): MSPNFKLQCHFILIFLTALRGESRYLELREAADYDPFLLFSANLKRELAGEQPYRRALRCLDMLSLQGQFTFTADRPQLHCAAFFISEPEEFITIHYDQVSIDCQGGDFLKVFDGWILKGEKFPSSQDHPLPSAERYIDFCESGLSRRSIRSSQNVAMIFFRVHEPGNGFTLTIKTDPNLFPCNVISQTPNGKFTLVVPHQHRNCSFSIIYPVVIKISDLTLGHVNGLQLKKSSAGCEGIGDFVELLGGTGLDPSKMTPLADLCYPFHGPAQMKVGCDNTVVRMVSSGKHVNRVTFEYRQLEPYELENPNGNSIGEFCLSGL

[19] = target: T4, Corticotropin-releasing factor receptor 2/Corticotropin-releasing factor-binding protein; experiment: activators of CRF receptor 2 with binding protein – uHTS hits, confirmation (AID 602473); assay type: functional; settings: read-out: EC50_Mean
[20] = target: Glyceraldehyde-3-phosphate dehydrogenase (Homo sapiens, UniProt P04406)
Glyceraldehyde-3-phosphate dehydrogenase, sequence (P04406 whole entry): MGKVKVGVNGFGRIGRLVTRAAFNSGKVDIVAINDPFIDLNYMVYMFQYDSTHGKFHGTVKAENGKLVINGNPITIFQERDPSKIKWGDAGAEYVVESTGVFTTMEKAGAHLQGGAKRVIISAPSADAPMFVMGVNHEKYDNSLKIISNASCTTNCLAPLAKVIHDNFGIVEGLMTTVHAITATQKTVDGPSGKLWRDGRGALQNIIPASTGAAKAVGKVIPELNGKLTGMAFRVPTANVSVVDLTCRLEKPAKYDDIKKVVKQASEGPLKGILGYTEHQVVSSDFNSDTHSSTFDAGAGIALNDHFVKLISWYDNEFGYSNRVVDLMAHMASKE

[21] = reduction of Shn3 3'UTR-driven luciferase in osteoblasts – cell-based, Clone20 osteoblasts, firefly luciferase, cherry-picked, dose response (AID 624132); assay type: functional;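 further: firefly luciferase luminescence from reporter carrying the Shn3 3'UTR in osteoblasts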
[22] = target: T5, RNA-binding protein pos-1 (Caenorhabditis elegans, UniProt G5EF15); experiment: disruptors of C. elegans POS-1 RNA interaction – biochemical, fluorescence polarization, dose response (AID 1964);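 further: purified POS-1 fused to maltose binding protein made in E. coli; potency of compounds blocking POS-1 binding to fluorescent RNA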
T5 sequence (G5EF15 whole entry): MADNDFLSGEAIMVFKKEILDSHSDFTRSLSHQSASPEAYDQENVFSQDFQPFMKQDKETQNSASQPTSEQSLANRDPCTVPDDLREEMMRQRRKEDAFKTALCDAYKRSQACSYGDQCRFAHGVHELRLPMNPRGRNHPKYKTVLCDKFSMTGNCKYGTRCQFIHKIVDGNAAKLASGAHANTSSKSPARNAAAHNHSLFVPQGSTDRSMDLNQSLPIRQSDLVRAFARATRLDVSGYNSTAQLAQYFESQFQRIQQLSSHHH

[23] = target: T6, Zinc finger protein mex-5 (Caenorhabditis elegans, UniProt Q9XUB2); experiment: potency of MEX-5 RNA-binding blockers – biochemical, C. elegans, fluorescence polarization, dose response (AID 1960)
T6 sequence (Q9XUB2 whole entry): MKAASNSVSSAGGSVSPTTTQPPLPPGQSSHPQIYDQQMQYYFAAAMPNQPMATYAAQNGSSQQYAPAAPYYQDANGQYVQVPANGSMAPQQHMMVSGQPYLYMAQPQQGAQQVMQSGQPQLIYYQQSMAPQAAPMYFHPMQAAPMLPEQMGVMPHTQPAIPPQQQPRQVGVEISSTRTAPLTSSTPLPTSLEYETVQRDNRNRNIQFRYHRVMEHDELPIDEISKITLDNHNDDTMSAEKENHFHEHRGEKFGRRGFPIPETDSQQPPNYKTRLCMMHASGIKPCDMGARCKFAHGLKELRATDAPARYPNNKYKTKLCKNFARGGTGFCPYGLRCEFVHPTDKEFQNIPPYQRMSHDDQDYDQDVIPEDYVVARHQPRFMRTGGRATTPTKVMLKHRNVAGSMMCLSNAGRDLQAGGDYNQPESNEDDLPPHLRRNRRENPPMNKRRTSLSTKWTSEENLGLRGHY

O=C(/C=C/c1ccco1)Oc1cc(Br)cc(/C=N/NC(=O)c2ccccc2O)c1
EC50 [1]: > 160 µM (inactive)
EC50 [2]: 5.69 µM (active)
EC50 (cells [3]): 8.58 µM (active)
EC50 [4]: 7.54 µM (active)
EC50 [5]: 2.62 µM (active)
EC50 [6]: 1.49 µM (active)
EC50 (cells [7]): 15.2 µM (active)
EC50 (Streptococcus): 5.62 µM (active)
AC50 (HEK293): 5.21 µM (active)

Cc1ccc(S(=O)(=O)N2CCCCC2)cc1NC(=S)NC(=O)c1ccco1
IC50 [8]: > 66 µM (inactive)
IC50 [9]: > 66 µM (inactive)

COc1cccc(C(=O)NC2CCCN(C3Cc4ccccc4C3)C2)c1OC (stereo not drawn)
EC50 [10]: 5.31 µM (active)

OCCN1CCN(Cc2cc(Br)cc(Br)c2O)CC1
EC50 [10]: 0.0293 µM (active)

Oc1ccc(Nc2nc3ccccc3nc2Nc2ccc(O)cc2)cc1
EC50 [11]: 21.4 µM (active)
EC50 [4]: 117 µM (active)
EC50 [12]: > 195 µM (not active)
EC50 [5]: > 120 µM (not active)
EC50 [13]: 4.43 µM (active)
EC50 [14]: 1.25 µM (active)
EC50 [15]: > 30 µM (not active)
EC50 [16]: 1.19 µM (active)
IC50 [17]: 67.3 µM (inactive)

Cc1ccn2cc(CCNC(=O)C3CC=CCC3C(=O)O)nc2c1 (stereo not drawn)
EC50 [10]: 3.76 µM (active)

Cc1sc2ncnc(N3CCC(C(=O)Nc4ccccc4C(C)(C)C)CC3)c2c1C
AC50 (HEK293): 16.8 µM (active)

COC(=O)CSC1=NS(=O)(=O)c2ccccc21
IC50 (Genome polyprotein): 23.2 µM (active)
IC50 [18]: > 47.1 µM (inactive)
EC50 [19]: > 53 µM (inactive)

COc1cccc(N2CCN(C3=C(Cl)C(=O)N(c4ccc(C)cc4)C3=O)CC2)c1
IC50 [20]: > 50 µM (inconclusive)

COc1cccc(NC(=O)CN(C)C(=O)CSC(=S)N2CCCC2)c1
IC50 [8]: > 66 µM (inactive)
IC50 [9]: > 66 µM (inactive)

O=C(CSc1nc2c(c(=O)n1-c1ccc(Br)cc1)SCC2)NCc1ccco1
AC50 [21]: 43 µM (active)

COc1ccc(C(=O)NC(=S)NCc2cccnc2)cc1[N+](=O)[O-]
IC50 [8]: > 66 µM (inactive)
IC50 [9]: > 66 µM (inactive)

Cc1cccc(CN2CCN(Cc3ccc(Cl)cc3)CC2)c1
AC50 (HEK293): 53.2 µM (active)

COC(=O)C1=NN(C(=O)c2ccc(C)cc2)C(O)(c2ccc(Cl)cc2)C1 (stereo not drawn)
EC50 [22]: > 300 µM (not active)
EC50 [23]: 37.7 µM (inconclusive)
EC50 [10]: 6.68 µM (active)

COc1ccccc1N1C(=O)NC(=O)/C(=C\c2cnn(-c3ccccc3)c2)C1=O
IC50 (Genome polyprotein): > 100 µM (active)

O=C(O)c1cc([N+](=O)[O-])c(Sc2nc3ccccc3[nH]2)c([N+](=O)[O-])c1
IC50 (Genome polyprotein): > 100 µM (active)

O=C(Cc1ccc(Br)cc1)N1CCN(c2ccccn2)CC1
IC50 [8]: > 66 µM (inactive)
IC50 [9]: > 66 µM (inactive)

c1ccc(P(c2ccccn2)c2ccccn2)cc1
IC50 [8]: > 66 µM (inactive)
IC50 [9]: > 66 µM (inactive)
